Test systems include MOLT-4; HCT-15; UACC-257; UO-31; HCC 2998; NCI-H522; HT-29; EKVX; SK-OV-3; HL-60; NCI-H226; RXF 393; HOP-62; SN12C; SNB-19; PC-3; NCI/ADR-RES; DU-145.
Holding throughout (assay): NCI-60 cell line screen, 48 h

The structures appear in SMILES notation.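 The compound was tested at five concentrations on cells cultured in 96-well plates, with a 48-hour exposure period. The concentration for 50% growth inhibition is given as GI50.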 Activity calls are given as the source filed them. Rule as the data show it: active = GI50 up to about 1.1 µM and inactive = higher. Bounds are passed on as bounds.

For the compound `COc1cccc2c1C(=O)c1c(O)c3c(c(O)c1C2=O)C[C@@](O)(C(C)O)C[C@@H]3OC1CC(N)C(O)C(C)O1` (some centres not stated), the GI50 is 0.105 µM (active) in the test on MOLT-4; 8.28 µM in the test with HCT-15; 1.42 µM (inactive) with UACC-257; 38.5 µM (inactive) in the test on UO-31; 1.68 µM (inactive) in the test with HCC 2998; 0.57 µM (active) in the test on NCI-H522. In addition, the GI50 in the test on HT-29 was 2.21 µM (inactive); with EKVX, 1.18 µM (inactive); in the test with SK-OV-3, 2.72 µM (inactive); in the test with HL-60, 0.171 µM (active); in the test with NCI-H226 it was 0.607 µM (active); with RXF 393 it was 1.47 µM (inactive). Also, the GI50 with HOP-62 was 0.861 µM (active); in the test on SN12C it was 0.993 µM (active); in the test on SNB-19, 0.883 µM (active).

Consider `OCCCCOC(c1ccccc1)(c1ccccc1)c1ccccc1`, for which the GI50 in the test on MOLT-4 is > 100 µM (inactive); in the test with HCT-15 it was greater than 100 µM; in the test with UACC-257, > 100 µM (inactive); in the test with UO-31, > 100 µM (inactive); in the test on HCC 2998, > 100 µM (inactive); with NCI-H522, > 100 µM (inactive). In addition, the GI50 in the test with HT-29, with SK-OV-3, in the test on HL-60, with NCI-H226, in the test with RXF 393 and in the test with HOP-62 was > 100 µM (inactive) each time. In the test with SN12C, the GI50 was > 100 µM (inactive).

As for `CC1(C)CC(=O)C(CC2C(=O)c3ccccc3C2=O)C(=O)C1`, the GI50 with MOLT-4 is > 100 µM (inactive); with HCT-15, greater than 100 µM; in the test on UACC-257, > 100 µM (inactive); in the test on UO-31 it was > 100 µM (inactive); in the test on HCC 2998 it was > 100 µM (inactive); in the test on NCI-H522 it was > 100 µM (inactive). For the same compound, the GI50 in the test on HT-29, in the test on EKVX, with SK-OV-3, with HL-60, in the test with NCI-H226 and in the test on RXF 393 was > 100 µM (inactive) throughout. The GI50 with HOP-62, with SN12C and with SNB-19 was > 100 µM (inactive) throughout.

For the compound `CCOC(=O)CNC1C(NC(C)=O)C(OC)OC2COC(c3ccccc3)OC21` (configuration not stated), the GI50 with MOLT-4 is > 10 µM (inactive); in the test with HCT-15 it was greater than 100 µM; with UACC-257, > 100 µM (inactive); in the test on UO-31, > 100 µM (inactive); with HCC 2998, > 100 µM (inactive); in the test with NCI-H522, > 100 µM (inactive). Also, the GI50 in the test with HT-29, in the test with EKVX, with SK-OV-3, in the test on HL-60, in the test with NCI-H226 and with RXF 393 was > 100 µM (inactive) each time. The GI50 in the test on SN12C and with SNB-19 was > 100 µM (inactive) throughout.

In the case of `COc1cc2c(c(OC)c1OC)-c1ccc(SC)c(=O)cc1C(CC(=O)Oc1cccc(C#N)c1)C2` (configuration not stated), the GI50 in the test with MOLT-4 is 0.536 µM (active); with HCT-15, 0.33 µM; in the test with UACC-257, 0.516 µM (active); with UO-31, 1.67 µM (inactive); in the test with HCC 2998, 0.254 µM (active); with NCI-H522 it was 0.187 µM (active). The GI50 was 0.276 µM (active) in the test on HT-29; 0.574 µM (active) in the test with EKVX; 0.046 µM (active) in the test on SK-OV-3; 0.254 µM (active) in the test with HL-60; 0.222 µM (active) in the test on NCI-H226; 0.167 µM (active) in the test with RXF 393. For the same compound, the GI50 in the test on HOP-62 is 0.638 µM (active); in the test with SN12C, 0.48 µM (active); with SNB-19, 0.678 µM (active).

Consider `COC(=O)[C@@H]1O[C@]12C(CO[Si](C)(C)C(C)(C)C)OC(n1ccc(=O)[nH]c1=O)C2O[Si](C)(C)C(C)(C)C` (some centres not stated), for which the GI50 with MOLT-4 is 8.36 µM (inactive); in the test with HCT-15, 28.3 µM; in the test with UACC-257, 22.1 µM (inactive); with UO-31, 18.9 µM (inactive); in the test on PC-3 it was 20.9 µM (inactive); in the test on HCC 2998, 6.87 µM (inactive). In addition, the GI50 in the test with NCI-H522 was 19.7 µM (inactive); with HT-29, 7.93 µM (inactive); in the test on NCI/ADR-RES it was 30.8 µM (inactive); in the test with EKVX, 25.9 µM (inactive); with SK-OV-3, 50.8 µM (inactive); in the test on HL-60, 10.1 µM (inactive). The GI50 in the test on NCI-H226 was 0.435 µM (active); in the test on HOP-62, 24 µM (inactive); in the test with DU-145 it was 25.2 µM (inactive); in the test with SN12C it was 30.6 µM (inactive); in the test on SNB-19 it was 22.9 µM (inactive).

As for `CCCCN(CCCC)/C(=N\C#N)NCc1ccccc1`, the GI50 in the test with HCT-15 is 15 µM; with UACC-257 it was 27.4 µM (inactive); with UO-31, 11.2 µM (inactive); with HCC 2998 it was 15.5 µM (inactive); in the test on NCI-H522, 3.95 µM (inactive); in the test with HT-29, 16.5 µM (inactive). The GI50 with EKVX was 19.6 µM (inactive); with SK-OV-3, 20.7 µM (inactive); with HL-60, 10.5 µM (inactive); with NCI-H226, 24.3 µM (inactive); in the test on RXF 393 it was 22.5 µM (inactive); in the test with HOP-62, 28.4 µM (inactive). For the same compound, the figures for the GI50 in the test on SN12C and in the test with SNB-19 were 18.8 µM (inactive) and 19.6 µM (inactive), respectively.

In the case of `C=CCC(C)(C(=O)NCCC)C(=O)c1ccccc1O` (configuration not stated), the GI50 in the test with MOLT-4 is > 100 µM (inactive); in the test with HCT-15 it was greater than 100 µM; in the test with UACC-257, > 100 µM (inactive); in the test with UO-31, > 100 µM (inactive); with HCC 2998, > 100 µM (inactive); in the test with NCI-H522, > 100 µM (inactive). The GI50 in the test with SK-OV-3, in the test on HL-60, in the test with NCI-H226, with RXF 393, with HOP-62 and in the test on SN12C was > 100 µM (inactive) each time. In addition, in the test on SNB-19, the GI50 was > 100 µM (inactive).

Regarding `COc1cc(/C=C2\[C@H]3c4c(c(OC)c(C)c(OC)c4OC)C[C@@H](C(=O)N2Cc2ccccc2)N3C(=O)OCC(C)C)c(OC)c(C)c1OC`, the GI50 in the test on MOLT-4 is 12.3 µM (inactive); in the test with HCT-15, greater than 100 µM; in the test with UACC-257 it was 16.6 µM (inactive); in the test with UO-31, > 100 µM (inactive); with HCC 2998, > 78.9 µM (inactive); in the test on NCI-H522 it was 19.4 µM (inactive). The GI50 with HT-29 was > 84.5 µM (inactive); with EKVX it was > 100 µM (inactive); in the test with SK-OV-3, > 100 µM (inactive); in the test with HL-60, 7.46 µM (inactive); in the test on NCI-H226, 1.16 µM (inactive); in the test on RXF 393, > 100 µM (inactive). Further, the GI50 with HOP-62, in the test on SN12C and in the test on SNB-19 was > 100 µM (inactive) throughout.

`COc1ccc2nc(NC(=O)C(=O)C(C(=O)c3ccccc3-c3ccccc3)C3OC(=O)c4ccccc43)sc2c1` (configuration not stated): the GI50 was 19.5 µM (inactive) in the test on MOLT-4; 22.4 µM (inactive) with UACC-257; 20.7 µM (inactive) with UO-31; 15.4 µM (inactive) with HCC 2998; 9.89 µM (inactive) with NCI-H522; 36.6 µM (inactive) in the test on HT-29. The GI50 in the test on EKVX was 21.7 µM (inactive); in the test with SK-OV-3 it was 27.4 µM (inactive); in the test with HL-60, 16 µM (inactive); with NCI-H226, 5.27 µM (inactive); with RXF 393, 10.2 µM (inactive); with HOP-62, 16.2 µM (inactive).

On to `Cc1cc(NS(=O)(=O)c2ccc(NC(=O)c3ccc(Cl)c4c(Nc5ccc(S(N)(=O)=O)cc5)c5ccccc5nc34)cc2)no1`, for which the GI50 is 22.5 µM (inactive) in the test with MOLT-4; greater than 100 µM in the test on HCT-15; 24 µM (inactive) with UACC-257; 23.2 µM (inactive) in the test with UO-31; 18.7 µM (inactive) with HCC 2998; 11 µM (inactive) in the test with NCI-H522. Moreover, the GI50 with HT-29 was 22.2 µM (inactive); in the test with EKVX, 33.1 µM (inactive); in the test on SK-OV-3, 34.8 µM (inactive); in the test on HL-60, 13.3 µM (inactive); in the test with NCI-H226 it was 20.3 µM (inactive); in the test on RXF 393, 16.8 µM (inactive). The GI50 with HOP-62 is 21.2 µM (inactive); in the test on SN12C, 23.1 µM (inactive); in the test on SNB-19, 14.7 µM (inactive).

Turning to `Cc1c(/C=N/NC(=O)c2ccccc2)c(=O)n(-c2ccccc2)n1C`, the GI50 in the test with MOLT-4 is > 100 µM (inactive); in the test with HCT-15 it was greater than 100 µM; with UACC-257, > 100 µM (inactive); with UO-31, > 100 µM (inactive); with HCC 2998 it was > 100 µM (inactive); in the test with NCI-H522, > 100 µM (inactive). For the same compound, the GI50 with HT-29, with EKVX, in the test on SK-OV-3, with HL-60, in the test with NCI-H226 and in the test on RXF 393 was > 100 µM (inactive) in each case. For the same compound, the GI50 in the test on HOP-62, in the test on SN12C and in the test with SNB-19 was > 100 µM (inactive) in each case.

Regarding `O=C1OC(O)C(Oc2c(Cl)cccc2Cl)=C1Cl` (configuration not stated), the GI50 in the test with MOLT-4 was 21.8 µM (inactive); in the test with HCT-15 it was 15.6 µM; with UACC-257, 19.5 µM (inactive); in the test on UO-31 it was 14.1 µM (inactive); with HCC 2998, 23.3 µM (inactive); with NCI-H522, 12.5 µM (inactive). The GI50 in the test with HT-29 was 18.4 µM (inactive); in the test on EKVX it was 29.6 µM (inactive); in the test with SK-OV-3, 19.5 µM (inactive); in the test with HL-60, 20 µM (inactive); in the test with NCI-H226, 18.4 µM (inactive); with RXF 393, 11.3 µM (inactive). Also, the values for the GI50 in the test with HOP-62, with SN12C and with SNB-19 were 17.7 µM (inactive), 17 µM (inactive) and 27.5 µM (inactive), respectively.

As to `CCOC(=O)/C(C#N)=C/c1[nH]c(C(=O)OCc2ccccc2)c(C)c1C`, the GI50 is > 100 µM (inactive) in the test on MOLT-4; greater than 100 µM in the test with HCT-15; > 100 µM (inactive) with UACC-257; > 100 µM (inactive) with UO-31; > 100 µM (inactive) in the test on HCC 2998; > 100 µM (inactive) with NCI-H522. Moreover, the GI50 with HT-29, in the test on EKVX, with SK-OV-3, with HL-60, with RXF 393 and in the test with HOP-62 was > 100 µM (inactive) in each case. The GI50 in the test with SN12C and with SNB-19 was > 100 µM (inactive) each time.

These data come from ChEMBL document CHEMBL1201862, “PubChem BioAssay data set” (2004).
